# Reference: US11261152B2, “Inhibitors of the N-terminal domain of the androgen receptor” (The Regents of the University of California, priority 2017, dated 2022)
# “Also recorded” adds a separate entry of the source.
# What was measured:
# [1] = tested on: AR-null PCa cells (DU145, PC3); experiment: MTT / CellTiter GLO cell viability, AR-null prostate cancer cells; conditions: for MTT AR-Neg: Table 3 grade HIGH/MED/LOW, grades not defined; for off target effects on AR-null prostate cancer cell lines compared to JN018 / growth of AR null prostate cancer cells: result in words
# Description: (§3) The results are means of quadruplicate expts±s.d. Top panel: CellTiter GLO luminescent bioassay (arbitrary units on vertical axis). Bottom panel: classical MTT assay ([blue/yellow]=[viable/non-viable]).
# (§4) Experiments were performed in quadruplicate; results are means+/−s.d.
# AR null PC3 cells were exposed to the indicated compounds for 6 days; cell viability was measured by MTT assay. Results were normalized to that of vehicle control. Experiments were performed in quadruplicate; results are means+/−s.d.
# For each compound and concentration in the figure, the bars represent relative cell viability of 22Rv1, LAPC4, and DU145, from left to right.
# For each compound and concentration in the figure, the bars represent relative cell viability of CWR22 and PC3, from left to right.
# [2] = tested on: c-Jun TAD; experiment: JUN-TAD fused to GAL4 DNA-binding domain reporter assay; type: cell-based; conditions: Table 3 grade HIGH/MED/LOW, grades not defined
# Source text: (§1) The inhibitory activity of JN018 was further evaluated in experiments in which the AR transactivation domain (TAD) or the c-Jun or CREB TAD was fused to the heterologous GAL4 DNA-binding domain and thereby drive reporter gene expression governed by the GAL4 response element (FIG. 1).
# [3] = tested on: AR transcriptional activity (MMTV reporter); experiment: MMTV reporter assay; type: cell-based; conditions: for MMTV: Table 3 grade HIGH/MED/LOW, grades not defined; for reporter activity driven by the MMTV promoter: result in words
# [4] = target: T1, AR transactivation domain (TAD) (Homo sapiens, UniProt P10275); experiment: AR-TAD fused to GAL4 DNA-binding domain reporter assay; type: cell-based; conditions: Table 3 grade HIGH/MED/LOW, grades not defined
# T1 construct: expressed in transfected cells
# T1 sequence (P10275 1-559 limits assumed): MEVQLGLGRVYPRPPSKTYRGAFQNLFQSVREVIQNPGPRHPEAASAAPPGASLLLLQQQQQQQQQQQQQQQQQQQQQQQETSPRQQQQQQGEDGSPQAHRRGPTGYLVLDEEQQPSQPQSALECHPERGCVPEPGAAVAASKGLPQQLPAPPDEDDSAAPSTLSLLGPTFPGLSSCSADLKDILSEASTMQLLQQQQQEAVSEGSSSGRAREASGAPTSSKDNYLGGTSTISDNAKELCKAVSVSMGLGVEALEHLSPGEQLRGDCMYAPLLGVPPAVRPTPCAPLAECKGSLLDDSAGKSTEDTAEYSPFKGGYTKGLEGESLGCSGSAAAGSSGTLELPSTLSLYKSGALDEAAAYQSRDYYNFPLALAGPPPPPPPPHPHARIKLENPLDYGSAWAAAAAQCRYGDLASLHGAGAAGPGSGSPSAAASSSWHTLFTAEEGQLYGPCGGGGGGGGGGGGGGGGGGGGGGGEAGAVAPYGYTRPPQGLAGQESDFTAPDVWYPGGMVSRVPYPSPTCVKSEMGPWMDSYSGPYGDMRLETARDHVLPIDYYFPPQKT
# Source text: as §1
# [5] = tested on: CREB TAD; experiment: CREB-TAD fused to GAL4 DNA-binding domain reporter assay; type: cell-based; conditions: Table 3 grade HIGH/MED/LOW, grades not defined
# Source text: as §1
# [6] = tested on: glucocorticoid response element (GRE) / glucocorticoid receptor; experiment: GRE reporter assay; type: cell-based; conditions: Table 3 grade HIGH/MED/LOW, grades not defined
# Description: FIG. 11B. Effects of JN series compounds in reporter assays for glucocorticoid response element. Experiments were performed in triplicate and results are means+/−s.d.
# [7] = tested on: AR positive PCa cells (LNCaP, LNCaP-AR, CWR22, 22Rv1, LAPC4); experiment: MTT / CellTiter GLO cell viability, AR positive prostate cancer cells; conditions: for MTT AR-Pos: Table 3 grade HIGH/MED/LOW, grades not defined; for growth inhibitory / suppressive effects as compared to JN018 / growth of AR expressing prostate cancer cells: result in words
# Description: as §3, §4
# Results were normalized to that of vehicle control. Experiments were performed in quadruplicate; results are means+/−s.d.
# Next, the effects of the compounds on growth of prostate cancer cell lines in vitro were evaluated.
# [8] = tested on: androgen response element (ARE); experiment: ARE reporter assay (tandem copies of the androgen response element); type: cell-based; conditions: for ARE: Table 3 grade HIGH/MED/LOW, grades not defined; for reporter activity driven by the ARE: result in words
# Description: FIG. 11A. Effects of JN series compounds in reporter assays for androgen response element. Experiments were performed in triplicate and results are means+/−s.d.
# [9] = tested on: non-AR-dependent reporter systems; experiment: Non-AR-dependent reporter systems; type: cell-based; conditions: result in words
# Source text: (§2) Additional compounds have been generated with sequential numbering through JN136. In vitro biologic activity and biochemical activity/selectivity for AR inhibition have been tested for JN104-133.
# [10] = tested on: AR transcriptional activity (PSA promoter/enhancer reporter); experiment: PSA promoter/enhancer reporter assay; type: cell-based; conditions: result in words
# Source text: as §2
# [11] = tested on: LNCaP-AR castration resistant cell line; experiment: LNCaP-AR castration resistant xenograft in castrated nude mice; type: in vivo; conditions: for tumor growth of LNCaP-AR model in castrated nude mice: oral gavage once per day, five days per week (Mon-Fri); for signs of toxicity in mice: xenograft study, oral gavage Mon-Fri
# Description: FIG. 12A. In vivo effects of JN series compounds.
# FIG. 12B. In vivo effects of JN series compounds.
# Selected compounds were tested in a mouse xenograft model. In this model, the LNCaP-AR castration resistant cell line was grown subcutaneously in the flanks of castrated nude mice. When tumors reached 150-200 mm^3, mice were administered selected JN series compounds, vehicle or positive control by oral gavage once per day for five days per week (Mon-Fri). […].
# [12] = tested on: A549; experiment: Growth of lung cancer cells; type: cell-based; conditions: not shown
# Source text: Further modifications of R1 yielded compounds with a spectrum of growth suppressive effects.
# [13] = tested on: AP1 mediated reporter activity; experiment: AP1 reporter assay; type: cell-based; conditions: Table 3 grade HIGH/MED/LOW, grades not defined
Structure (SMILES),MTT AR-Neg [1],JUN-TAD [2],MMTV [3],AR-TAD [4],CREB-TAD [5],GRE [6],MTT AR-Pos [7],ARE [8],further results
"C=CC(O)/C(=C\c1ccc(Cl)cc1)c1ccccc1 (stereo not drawn) [JN003, (Z)-1-(4-Chlorophenyl)-2-phenylpenta-1,4-dien-3-ol]",LOW,LOW,HIGH,HIGH,LOW,LOW,LOW,,
"CN(C/C(=C\c1ccc(Cl)cc1)C(=O)c1ccccc1)Cc1ccccc1 [JN017, (E)-2-((Benzyl(methyl)amino)methyl)-3-(4-chlorophenyl)-1-phenylprop-2-en-1-one]",MED,LOW,LOW,HIGH,LOW,,HIGH,LOW,
CN(C/C(=C\c1ccc(Cl)cc1)C(=O)c1ccc(Cl)cc1)Cc1ccccc1 [JN050],MED,LOW,HIGH,HIGH,MED,HIGH,HIGH,HIGH,
C=C(C)C(=O)NC(=O)/C(=C/c1ccc(Cl)cc1)c1ccc(F)cc1F [JN118],,,,,,,,,off target effects on AR-null prostate cancer cell lines compared to JN018 [1]: reduced off target effects; reporter activity driven by the MMTV promoter [3]: excellent inhibitory effects; effects on non-AR-dependent reporter systems [9]: minimal effects; reporter activity driven by the ARE [8]: excellent inhibitory effects; AR transcriptional activity in PSA promoter/enhancer reporter [10]: excellent inhibitory effects; growth inhibitory / suppressive effects as compared to JN018 [7]: improved in vitro growth inhibitory effects
CN(C/C(=C\c1cccc(Cl)c1)C(=O)c1ccccc1)Cc1ccccc1 [JN048],LOW,LOW,HIGH,HIGH,LOW,LOW,HIGH,HIGH,
CN(C/C(=C\c1ccc(C(F)(F)F)cc1)C(=O)c1ccccc1)Cc1ccccc1 [JN044],MED,LOW,MED,HIGH,MED,HIGH,HIGH,HIGH,
C=C(CN(C)Cc1ccccc1)C(=O)/C(=C/c1ccc(Cl)cc1)c1ccc(F)cc1.Cl [JN090],,,,,,,,,tumor growth of LNCaP-AR model in castrated nude mice [11]: inhibit the growth; also recorded: demonstrated anti-tumor effects; signs of toxicity in mice [11]: limited or no outward signs of toxicity
O=C(/C=C/c1ccc(F)cc1)C(=Cc1ccc(F)cc1)c1ccccc1 [JN051],HIGH,,HIGH,,,HIGH,HIGH,HIGH,
C=C(CN(C)Cc1ccccc1)C(=O)/C(=C/c1cccc(Cl)c1)c1ccccc1.Cl [JN060],HIGH,,HIGH,,,HIGH,HIGH,HIGH,
C=C(C)C(=O)NC(=O)/C(=C/c1ccc(C(F)(F)F)cc1)c1ccccc1 [JN121],,,,,,,,,off target effects on AR-null prostate cancer cell lines compared to JN018 [1]: reduced off target effects; reporter activity driven by the MMTV promoter [3]: excellent inhibitory effects; effects on non-AR-dependent reporter systems [9]: minimal effects; reporter activity driven by the ARE [8]: excellent inhibitory effects; AR transcriptional activity in PSA promoter/enhancer reporter [10]: excellent inhibitory effects; growth inhibitory / suppressive effects as compared to JN018 [7]: improved in vitro growth inhibitory effects; tumor growth of LNCaP-AR model in castrated nude mice [11]: inhibit the growth; also recorded: demonstrated anti-tumor effects; signs of toxicity in mice [11]: limited or no outward signs of toxicity
C=C(C)C(=O)NC(=O)/C(=C/c1ccc(Cl)cc1)c1ccc(F)cc1 [JN103],,,,,,,,,growth of AR null prostate cancer cells [1]: did not influence growth; reporter activity driven by the ARE [8]: inhibited reporter activity; growth inhibitory / suppressive effects as compared to JN018 [7]: improved growth suppressive effects; growth of AR expressing prostate cancer cells [7]: suppressed growth; growth of lung cancer cells (A549) [12]: did not influence growth; tumor growth of LNCaP-AR model in castrated nude mice [11]: inhibit the growth; also recorded: demonstrated anti-tumor effects; signs of toxicity in mice [11]: limited or no outward signs of toxicity
CN(C/C(=C\c1ccc(Br)cc1)C(=O)c1ccccc1)Cc1ccccc1 [JN022],HIGH,HIGH,HIGH,HIGH,LOW,,HIGH,LOW,
Cc1ccc(/C=C(\CN(C)Cc2ccccc2)C(=O)c2ccccc2)cc1 [JN043],MED,LOW,HIGH,HIGH,MED,HIGH,HIGH,HIGH,
CN(C)C/C(=C\c1ccc(Cl)cc1)C(=O)c1ccccc1 [JN024],MED,HIGH,HIGH,HIGH,HIGH,,HIGH,HIGH,
"CNC(=O)c1ccc(N2C(=S)N(c3ccc(C#N)c(C(F)(F)F)c3)C(=O)C2(C)C)cc1F [MDV 3100, enzalutamide, reference compound]",LOW,LOW,,,LOW,LOW,HIGH,HIGH,AP1 [13]: HIGH
"C=C(C)C(=O)NC(=O)/C(=C/c1ccc(Cl)cc1)c1ccccc1 [JN102, (E)-3-(4-Chlorophenyl)-N-methacryloyl-2-phenylacrylamide]",,,,,,,,,growth of AR null prostate cancer cells [1]: did not influence growth; reporter activity driven by the ARE [8]: inhibited reporter activity; growth inhibitory / suppressive effects as compared to JN018 [7]: improved growth suppressive effects; growth of AR expressing prostate cancer cells [7]: suppressed growth; growth of lung cancer cells (A549) [12]: did not influence growth
